Each structure is given as a SMILES string.

For data set [1], the system named is LDL cholesterol oxidation. The note with it: cited from earlier work.
The conditions of data set [2]: cited from earlier work.
For data set [3], the system named is pro-oxidant activity of Vioxx. To be noted: in vitro; cited from earlier work.
The test system of data set [4] is lipid peroxidation. To be noted: relative to alpha-tocopherol; in vitro and in vivo studies; cited from earlier work.
The conditions of data set [5]: cited from earlier work. The source holds these as a separate data set.
For data set [6] the following is noted: eight weeks of supplementation at 6 mg per day; cited from earlier work.
Data set [7] has as its system lens epithelial cells. The note with it: in vitro, at umol/L concentrations; cited from earlier work.
Data set [8] relates to C-Reactive Protein (C-RP). To be noted: cited from earlier work.
A short description of data set [9]: Stability of carotenoids blended with krill oil, UV analysis. In kind it is physicochemical. The text has this: Testing has determined that astaxanthin added to krill oil results in an unstable product with respect to recoverable astaxanthin by HPLC analysis. A chemical reaction most likely takes place between krill oil and at least astaxanthin in such mixtures. […] Had UV alone been used to determine product stability the decrease in recoverable astaxanthin over time would not have been observed. The test results, tables and charts of FIGS. 2-6 show the decrease in recoverable astaxanthin over time.
FIG. 2 is a chart showing data of astaxanthin at 13 days post formulation reacting with krill oil, but essentially neither lutein nor zeaxanthin. Astaxanthin is a keto-alcohol while lutein and zeaxanthin are alcohols and this can possibly make some difference. It should also be understood that the krill oil and “reacted” carotenoids, such as astaxanthin, and possibly zeaxanthin and lutein, lose their ability to be recovered over time from the mixture but can still be quantitated by ultraviolet (UV) analysis. For example, the chromophores of the carotenoids are not destroyed when the reaction takes place over time and can be used to develop a number of products useful for cardiovascular applications, joint health care applications, eye care and other diseases.
Referring now to the chart in FIG. 2, there are shown various samples and explanation. […]

As to `CC1=C(/C=C/C(C)=C/C=C/C(C)=C/C=C/C=C(C)/C=C/C=C(C)/C=C/C2=C(C)C(=O)[C@@H](O)CC2(C)C)C(C)(C)C[C@H](O)C1=O` [astaxanthin], the “protection of LDL cholesterol against induced in vitro oxidation” value in data set [1] (3.6 mg per day for two weeks) is “protects LDL cholesterol against induced in vitro oxidation”. The “reduction of LDL cholesterol oxidation” value in [1] (4 mg per day for two weeks) is listed as 26%. For the same compound, the “potency in quenching singlet oxygen, times more potent than alpha-tocopherol” value in data set [2] (relative to alpha-tocopherol) is 550 times. Moreover, the “potency in quenching singlet oxygen, times more potent than beta-carotene” value in data set [2] (relative to beta-carotene) is 11 times. Further, the “potency in quenching singlet oxygen, times more potent than lutein” value in [2] (relative to lutein) is recorded as 27.5 times. In data set [3], the “negation of pro-oxidant activity of Vioxx” value is on record as “negate the pro-oxidant activity of Vioxx”. Further, the “mean effective concentration which inhibits lipid peroxidation, times lower than that of alpha-tocopherol” value in data set [4] is recorded as 500 times. Further, the “potency in scavenging oxygen free radicals, times more potent than alpha-tocopherol” value in data set [5] (relative to alpha-tocopherol) is 14 times. For the same compound, the “potency in scavenging oxygen free radicals, times more potent than ascorbic acid (Vitamin C)” value in data set [5] (relative to ascorbic acid) was 65 times. For the same compound, the “potency in scavenging oxygen free radicals, times more potent than beta-carotene” value in [5] (relative to beta-carotene) is on record as 54 times. In data set [6], the “negative effect in healthy adults” value is “no negative effect”. The “suppression of UVB induced lipid per-oxidative mediated cell damage” value in data set [7] is “suppresses UVB induced lipid per-oxidative mediated cell damage”. For the same compound, in [8] (4 mg for eight weeks), the “decrease in C-reactive protein scores” value is listed as 21%. The “drop in serum C-RP levels” value in data set [8] (human subjects with high risk levels of C-RP, three months of treatment) is given as 43%. The “UV quantification of the amount of astaxanthin added to blended product” value in data set [9] is listed as around 100%.

Values taken from patent US9351982B2, “Krill oil and reacted astaxanthin composition and associated method” (U.S. Nutraceuticals, LLC, priority 2009, dated 2016).
